Laboratory results as given in patent EP0223143A2, “Analogs of atrial natriuretic peptides” (CALIFORNIA BIOTECHNOLOGY, INC., priority 1985, dated 1987).
“Also recorded” adds a separate entry of the source. Where a SMILES comes first, the peptide text is derived from it. Bridges are numbered along the chain shown (N, C = ends). Where no end group is shown, it is not given here. [ ]: non-standard residue; d: D form. The star is where a group is joined. Phenylacetyl(4-Ph) = O=C(Cc1ccc(-c2ccccc2)cc1)*; Acetyl(2-naphthyloxy) = O=C(COc1ccc2ccccc2c1)*; Acetyl(2-naphthyl) = O=C(Cc1ccc2ccccc2c1)*

How the values were obtained:
[1] = test system: specific receptor sites on BASM or BAE cells; experiment: competitive displacement receptor binding assay (Tables IA-IE); parameters: species or system bovine; conditions: statements in words on Tables IA-IE; displacement of [^125I]-rANP(126-150)
From the text: (§1) An assay has been developed, generally in accordance with the disclosure of Schenk, supra, and Scarborough, R.M. et al., J. Biol. Chem. 261:12960-12964 (1986), which evaluates the ability of ANP analogs to compete with a labeled native ANP for binding to cultured BASM and BAE cells. This native ANP, having the amino acid sequence: [drawing 103] was iodinated on the Carboxy-terminal Y residue and is identified as […]. Analogous "competitive displacement" receptor binding assays are considered commonplace in the art for examining specific ligand-receptor interactions.
(§2) Assuming these ANP analogs act at one or more ANP receptor sites, then increased receptor affinity should reflect increased biological potency.

[2] = target: T1, BASM cell-associated receptors (Bos taurus, UniProt P10730); experiment: competitive displacement receptor binding assay, BASM cells (Figure 1); parameters: species or system bovine; conditions: 0.5 nM [^125I]-rANP(126-150), increasing concentrations of unlabeled peptide
T1 construct: endogenous in cells; host or cells: cultured BASM cells
T1 sequence (P10730 42-537): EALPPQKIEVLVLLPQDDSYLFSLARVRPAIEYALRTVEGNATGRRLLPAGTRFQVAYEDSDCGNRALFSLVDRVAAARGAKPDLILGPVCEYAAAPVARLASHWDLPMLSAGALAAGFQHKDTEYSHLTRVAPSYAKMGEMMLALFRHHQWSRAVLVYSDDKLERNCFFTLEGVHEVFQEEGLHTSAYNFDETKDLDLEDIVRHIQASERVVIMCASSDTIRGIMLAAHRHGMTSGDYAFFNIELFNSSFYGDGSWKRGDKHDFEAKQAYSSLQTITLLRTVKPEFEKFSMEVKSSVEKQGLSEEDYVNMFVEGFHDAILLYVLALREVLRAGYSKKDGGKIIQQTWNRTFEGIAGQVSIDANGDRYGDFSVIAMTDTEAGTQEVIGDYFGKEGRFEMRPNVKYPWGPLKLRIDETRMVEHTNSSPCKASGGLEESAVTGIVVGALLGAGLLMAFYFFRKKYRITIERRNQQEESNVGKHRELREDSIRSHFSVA
From the text: as §1, §2

anesthetized rats = experiment: diuresis in anesthetized rats; assay type: in vivo; conditions: compared with baseline, Figure 2
Experimental: In one set of examples, cannulae were placed in the left and right ureters and femoral vein of anesthetized rats and urine was collected from the ureters. Analog peptides were administered via the femoral vein. Prior to infusing the analog peptides, saline was infused for 30 minutes, urine was collected for 6 five minutes baseline periods and urine volume was determined gravimetrically. Following these baseline collection periods, various analog peptides were infused for 30 or 60 minutes and urine volume was measured in five minute periods during infusion and for 60 minutes following infusion (at which time rats were returned to saline). Data was examined by averaging urine flow rates for six five- minute baseline control periods immediately preceding infusion, and comparing values during and after administration of peptides with the "baseline" control values. Responses to peptides are thus evaluated and plotted as the percent of baseline control responses. Specific examples are shown in Figures 2A-H. The error bars at the beginning of the graphs represent baseline values ± standard deviations. Responses to peptides that are substantially above baseline ± SD can thus be interpreted as being statistically significant increases.

[3] = test system: pentobarbital anesthetized dogs; experiment: diuresis and natriuresis in anesthetized dogs; assay type: in vivo; conditions: vs saline controls
Experimental: In these examples, cannulae were placed in the left and right ureters and femoral vein of anesthetized dogs and urine was collected from the ureters. Analog peptides were administered via the femoral vein. Prior to infusing analog peptides, saline was infused for 30 minutes and urine was then collected for three ten minute collection periods. Urine volume was determined gravimetrically and urine sodium was determined photometrically.
Following these three baseline collection periods, the selected analog peptides were infused for 60 minutes and urinary flow was measured for an additional 60 minutes following infusion. During infusion (60 minutes) and recovery (60 minutes), ten minute collection periods were obtained. Control animals which received only saline were studied in parallel.

[4] = infused at 3 µg/kg/minute for 60 minutes
[5] = infused at 1 µg/kg/minute for 60 minutes

| Compound | receptor binding affinity (Ki(app)) [1] | other results |
| --- | --- | --- |
| RIDRIG-NH2 [AP125, R-I-D-R-I-G-NH2] | inactive | – |
| AFGGRIDRIGA-NH2 [AP101, A-F-G-G-R-I-D-R-I-G-A-NH2] | substantial Ki(app)s | [^125I]-rANP(126-150) binding to BASM cell-associated receptors [2]: effectively prevent; urine flow rate (urine volume) (anesthetized rats; infused at 5 µg/min via femoral vein): significantly increased; urinary sodium excretion [3, 4]: significantly increased; urine flow rate (urine volume) [3, 4]: significantly increased |
| CC[C@H](C)[C@H](NC(=O)[C@H](CCCNC(=N)N)NC(=O)[C@H](CC(=O)O)NC(=O)[C@@H](NC(=O)[C@H](CCCNC(=N)N)NC(=O)CNC(=O)CNC(=O)Cc1ccc(-c2ccccc2)cc1)[C@@H](C)CC)C(N)=O [AP317, [4-Biphenylacetyl]-G-G-R-I-D-R-I-NH2] ({Phenylacetyl(4-Ph)}-GGRIDRI-NH2) | greatly diminished activity | – |
| CC[C@H](C)[C@@H]1NC(=O)[C@H](CCCNC(=N)N)NC(=O)[C@H](CC(=O)O)NC(=O)[C@H]([C@@H](C)CC)NC(=O)[C@H](CCCNC(=N)N)NC(=O)CNC(=O)[C@@H](NC(=O)[C@H](CO)NC(=O)[C@H](CO)NC(=O)[C@@H](N)CCCNC(=N)N)CSSC[C@@H](C(=O)N[C@@H](CC(N)=O)C(=O)N[C@@H](CO)C(=O)N[C@@H](Cc2ccccc2)C(=O)N[C@@H](CCCNC(=N)N)C(=O)N[C@@H](Cc2ccc(O)cc2)C(=O)O)NC(=O)CNC(=O)[C@H](CC(C)C)NC(=O)CNC(=O)[C@H](CO)NC(=O)[C@H](CCC(N)=O)NC(=O)[C@H](C)NC(=O)CNC1=O [AP24, R-S-S-C-G-R-I-D-R-I-G-A-O-S-G-L-G-C-N-S-F-R-Y] (H-RSSCGRIDRIGAQSGLGCNSFRY-OH; disulfide 4-18) | weaker apparent affinity | – |
| CC[C@H](C)[C@H](NC(=O)[C@H](CCCNC(=N)N)NC(=O)[C@H](CC(=O)O)NC(=O)[C@@H](NC(=O)[C@H](CCCNC(=N)N)NC(=O)CNC(=O)CNC(=O)Cc1ccc2ccccc2c1)[C@@H](C)CC)C(=O)NCC(=O)N[C@@H](C)C(N)=O [AP306, [2-Napthylacetyl]-G-G-R-I-D-R-I-G-A-NH2] ({Acetyl(2-naphthyl)}-GGRIDRIGA-NH2) | high binding affinity; also recorded: substantial Ki(app)s | urinary sodium excretion [3, 4]: significantly increased; urine flow rate (urine volume) [3, 4]: significantly increased |
| CC[C@H](C)[C@H](NC(=O)[C@H](CCCNC(=N)N)NC(=O)CNC(=O)CNC(=O)[C@H](Cc1ccccc1)NC(=O)[C@H](C)N)C(=O)N[C@@H](CC(=O)O)C(=O)N[C@H](CCCNC(=N)N)C(=O)N[C@H](C(=O)NCC(=O)N[C@@H](C)C(N)=O)[C@@H](C)CC [AP304, A-F-G-G-R-I-D-[D-R]-I-G-A-NH2] (H-AFGGRID[dR]IGA-NH2) | inactive | – |
| CC[C@H](C)[C@H](NC(=O)[C@H](CCCNC(=N)N)NC(=O)[C@H](CC(=O)O)NC(=O)[C@@H](NC(=O)[C@@H](CCCNC(=N)N)NC(=O)CNC(=O)CNC(=O)[C@H](Cc1ccccc1)NC(=O)[C@H](C)N)[C@@H](C)CC)C(=O)NCC(=O)N[C@@H](C)C(N)=O [AP301, A-F-G-G-[D-R]-I-D-R-I-G-A-NH2] (H-AFGG[dR]IDRIGA-NH2) | inactive | – |
| CC[C@H](C)[C@H](NC(=O)[C@H](CCCNC(=N)N)NC(=O)CNC(=O)CNC(=O)Cc1ccc2ccccc2c1)C(=O)N[C@@H](CC(=O)O)C(=O)N[C@@H](CCCNC(=N)N)C(=O)N[C@H](C(N)=O)C(C)C [AP333, [2-Napthylacetyl]-G-G-R-I-D-R-V-NH2] ({Acetyl(2-naphthyl)}-GGRIDRV-NH2) | greatly diminished activity | – |
| CC[C@H](C)[C@H](NC(=O)[C@H](CCCNC(=N)N)NC(=O)[C@@H](CC(=O)O)NC(=O)[C@@H](NC(=O)[C@H](CCCNC(=N)N)NC(=O)CNC(=O)CNC(=O)[C@H](Cc1ccccc1)NC(=O)[C@H](C)N)[C@@H](C)CC)C(=O)NCC(=O)N[C@@H](C)C(N)=O [AP303, A-F-G-G-R-I-[D-D]-R-I-G-A-NH,] (H-AFGGRI[dD]RIGA-NH2) | inactive | – |
| CC[C@H](C)[C@H](NC(=O)[C@H](CCCNC(=N)N)NC(=O)[C@H](CC(=O)O)NC(=O)[C@@H](NC(=O)[C@H](CCCNC(=N)N)NC(=O)CNC(=O)CNC(=O)COc1ccc2ccccc2c1)[C@@H](C)CC)C(N)=O [AP319, [2-Napthoxyacetyl]-G-G-R-I-D-R-I-NH2] ({Acetyl(2-naphthyloxy)}-GGRIDRI-NH2) | high binding affinity | urine flow rate (urine volume) (anesthetized rats; infused at 10 µg/min via femoral vein): significantly increased |
| GGRIDRIGAA-NH2 [AP105, G-G-R-I-D-R-I-G-A-A-NH2] | inactive | – |
| CC[C@H](C)[C@H](NC(=O)[C@H](CCCNC(=N)N)NC(=O)[C@H](CC(=O)O)NC(=O)[C@@H](NC(=O)[C@H](CCCNC(=N)N)NC(=O)CNC(=O)[C@@H](C)NC(=O)COc1ccc2ccccc2c1)[C@@H](C)CC)C(N)=O [AP322, [2-Napthoxyacetyl]-[D-A]-G-R-I-D-R-I-NH2] ({Acetyl(2-naphthyloxy)}-[dA]GRIDRI-NH2) | greatly diminished activity | – |
| CC[C@H](C)[C@H](NC(=O)[C@H](CCCNC(=N)N)NC(=O)[C@H](CC(=O)O)NC(=O)[C@@H](NC(=O)[C@H](CCCNC(=N)N)NC(=O)CNC(=O)CNC(=O)Cc1ccc2ccccc2c1)[C@@H](C)CC)C(N)=O [AP314, [2-Napthylacetyl]-G-G-R-I-D-R-I-NH2] ({Acetyl(2-naphthyl)}-GGRIDRI-NH2) | high binding affinity; also recorded: substantial Ki(app)s | urinary sodium excretion [3, 5]: significantly increased; urine flow rate (urine volume) [3, 5]: significantly increased |
| (desNH2-F)-G-G-R-I-D-R-I-NH2 [AP132] | – | [^125I]-rANP(126-150) binding to BASM cell-associated receptors [2]: effectively prevent |
